Measurements published in article PMC10287695, “Non-covalent inhibitors of thioredoxin glutathione reductase with schistosomicidal activity in vivo” (Nature Communications, 2023).
Values joined by “and” are separate entries in the source; they are usually repeats but may differ in a detail not shown here. Identical values can stand only once. Like-named read-outs stand apart in the source and are kept apart here.

What was measured:
[1] = system: S. mansoni juvenile worms in mice; experiment: Schistosomicidal efficacy in infected mice, juvenile worms (21 d.p.i.); assay type: in vivo
Procedure: (§1) To assess the efficacy of the compounds in vivo against juvenile and adult worms, five female Swiss-Webster mice were randomly assigned for the control and experiment groups using a randomization tool embedded in GraphPad Prism. Mice were percutaneously exposed for 1 h to about 80 S. mansoni cercariae. Three- and six-weeks post infection, respectively, for juvenile and adult worms, mice were treated depending on their weight with formulations of the compounds, while the control mice received only the vehicle. Compounds were formulated with 10% DMSO and 10% Tween-80, and vortexed to obtain a uniform mixture. The mixture was sonicated twice for 5 min each time using a digital ultrasonic cleaner heated to 50 °C. Sodium chloride 0.9% (80% normal saline) was added to the mixture, briefly vortexed and sonicated one more time using the same conditions as previous. The investigators were blinded by which group of mice received a treatment and the vehicle, as injection was done by technicians from the Comparative Research Center of Rush University Medical Center. Using a 26 G, 3/8 in intradermal bevel needle, each mouse was administered intraperitoneally with 100 µl of the formulated compound suspension at 50 mg/kg, 100 mg/kg and 200 mg/kg. Mice treated three weeks post infection for juvenile worms were euthanized three weeks post treatment and mice treated six weeks post infection were euthanized one week post treatment with 0.018 ml of Euthasol and 5.85 mg/ml heparin and perfused. The mesenteric and hepatic portal veins of the mice were carefully scanned under the microscope to extract any remaining S. mansoni adult worms and worm burdens were determined. Egg burden was determined by weighing 50 mg of liver tissue from each of treated and control mice. The liver tissues were digested with 5% KOH at 37 °C overnight and washed twice with PBS. The number of eggs per 50 mg of liver tissue was determined using a Keyence BZ-X800 microscope using the egg autofluorescence.

[2] = system: S. mansoni adult worms in mice; experiment: Schistosomicidal efficacy in infected mice, adult worms (42 d.p.i.); assay type: in vivo; conditions: for Egg burden, Treated, individual mice / Worm burden, Treated, individual mice: Adult worm; for Egg burden, Treated, individual mice: eggs per 50 mg liver (Fig. 6); for decrease in egg burden / decrease in worm burden: mice
Procedure: as §1

TGR = target: T1, TGR (Schistosoma mansoni, UniProt Q962Y6); assay type: biochemical, S. mansoni; conditions: for mode of inhibition (NADPH varied): steady state
T1 construct: made in house
T1 sequence (Q962Y6 1-598): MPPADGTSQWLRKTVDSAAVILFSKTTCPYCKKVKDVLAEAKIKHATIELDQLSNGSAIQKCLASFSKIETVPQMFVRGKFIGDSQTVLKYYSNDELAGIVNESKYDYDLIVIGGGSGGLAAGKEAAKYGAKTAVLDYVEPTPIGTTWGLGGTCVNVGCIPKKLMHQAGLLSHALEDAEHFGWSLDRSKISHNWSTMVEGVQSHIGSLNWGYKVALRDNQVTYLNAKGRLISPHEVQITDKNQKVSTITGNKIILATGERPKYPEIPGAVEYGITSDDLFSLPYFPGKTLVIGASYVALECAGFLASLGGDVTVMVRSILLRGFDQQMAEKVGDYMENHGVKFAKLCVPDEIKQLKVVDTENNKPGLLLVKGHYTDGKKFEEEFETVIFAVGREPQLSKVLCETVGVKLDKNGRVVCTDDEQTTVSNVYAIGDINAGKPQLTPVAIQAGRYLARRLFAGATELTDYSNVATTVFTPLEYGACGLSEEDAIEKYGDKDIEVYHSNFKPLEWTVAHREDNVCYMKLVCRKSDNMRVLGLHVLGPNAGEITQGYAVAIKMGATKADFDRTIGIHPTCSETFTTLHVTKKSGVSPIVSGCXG
Procedure: Master mixes with varying concentrations of NADPH were made, each with 2 nM TGR in reaction buffer. Inhibitor (2 µl) was added to a 96 well microplate in triplicate for each NADPH and inhibitor concentration, and 192 µl of the master buffer was added to each well. The reaction incubated for 15 min and 6 µl of 50 mM DTNB was added to each well. The kinetic rate was measured at A412 for 5 min.

[3] = mice, 1 x 100 mg/kg at 21 d.p.i. (juvenile worms)
[4] = 1 x 100 mg/kg, listed as 8VP101
[5] = 1 x 100 mg/kg i.p. at 42 d.p.i.
[6] = 2 x 50 mg/kg i.p. at 42 and 45 d.p.i.
[7] = inhibitor 0.6 µM, NADPH 10 (unit not given)
[8] = inhibitor 0.6 µM, NADPH 30 (unit not given)
[9] = inhibitor 0.6 µM, NADPH 100 (unit not given)
[10] = inhibitor 0.6 µM, NADPH 300 (unit not given)
[11] = inhibitor 10 µM, NADPH 10 (unit not given)
[12] = inhibitor 10 µM, NADPH 30 (unit not given)
[13] = inhibitor 10 µM, NADPH 100 (unit not given)
[14] = inhibitor 10 µM, NADPH 300 (unit not given)
[15] = inhibitor 30 µM, NADPH 10 (unit not given)
[16] = inhibitor 30 µM, NADPH 30 (unit not given)
[17] = inhibitor 30 µM, NADPH 100 (unit not given)
[18] = inhibitor 30 µM, NADPH 300 (unit not given)
[19] = 1 x 100 mg/kg, listed as 9VP173
[20] = 1 x 200 mg/kg, listed as 9VP173
[21] = 1 x 200 mg/kg i.p. at 42 d.p.i.
[22] = inhibitor 1 µM, NADPH 5 (unit not given)
[23] = inhibitor 1 µM, NADPH 10 (unit not given)
[24] = inhibitor 1 µM, NADPH 30 (unit not given)
[25] = inhibitor 1 µM, NADPH 100 (unit not given)
[26] = inhibitor 3 µM, NADPH 5 (unit not given)
[27] = inhibitor 3 µM, NADPH 10 (unit not given)
[28] = inhibitor 3 µM, NADPH 30 (unit not given)
[29] = inhibitor 3 µM, NADPH 100 (unit not given)

CCc1ccccc1-c1nc(CN[C@@H]2C[C@@H]3C[C@H]([C@H]2C)C3(C)C)c(C)o1 [Compound 2]
Egg burden, Treated, individual mice ([1]; 1 x 100 mg/kg, Juvenile worm, eggs per 50 mg liver (Fig. 6), listed as 8VP101): 986 and 1201 and 968 and 1001 and 988
Worm burden, Treated, individual mice ([1]; 1 x 100 mg/kg, Juvenile worm, listed as 8VP101): 12 and 13 and 11 and 8
ED50 ([1]; Schistosoma mansoni, 504 h, based on the single dose tested, 21 d.p.i., read-out: estimated ED50 against juvenile worms): < 100 mg/kg
decrease in egg burden [1, 3]: 56.7% and 57%
decrease in worm burden [1, 3]: 61.3% and 61% and > 60%
Egg burden, Treated, individual mice [2, 4]: 296 and 301 and 311 and 299 and 321
Worm burden, Treated, individual mice [2, 4]: 8 and 6 and 4 and 5
Egg burden, Treated, individual mice ([2]; 2 x 50 mg/kg, listed as 8VP101): 319 and 335 and 372 and 393 and 436
Worm burden, Treated, individual mice ([2]; 2 x 50 mg/kg, listed as 8VP101): 5 and 10 and 8 and 4 and 3
decrease in egg burden [2, 5]: 73% and 73.3%
decrease in worm burden [2, 5]: 85% and 85.2%
decrease in egg burden [2, 6]: 69% and 68.8%
decrease in worm burden [2, 6]: 43% and 42.9%

Cc1oc(-c2ccccc2)nc1CN[C@@H]1C[C@@H]2C[C@H]([C@H]1C)C2(C)C [Compound 3]
Vmax (TGR; 70 µM inhibitor, 6 hr preincubation): 0.0086 ± 0.0003 ΔA412/min
avg rate (TGR; NADPH 3 µM, 35 µM compound): 0.003992
avg rate (TGR; NADPH 3 µM, 50 µM compound): 0.003778
avg rate (TGR; NADPH 3 µM, 70 µM compound): 0.003468
avg rate (TGR; NADPH 10 µM, 35 µM compound): 0.007014
avg rate (TGR; NADPH 10 µM, 50 µM compound): 0.006219
avg rate (TGR; NADPH 10 µM, 70 µM compound): 0.005582
avg rate (TGR; NADPH 30 µM, 35 µM compound): 0.009551
avg rate (TGR; NADPH 30 µM, 50 µM compound): 0.008305
avg rate (TGR; NADPH 30 µM, 70 µM compound): 0.007122
avg rate (TGR; NADPH 100 µM, 35 µM compound): 0.01022
avg rate (TGR; NADPH 100 µM, 50 µM compound): 0.009229
avg rate (TGR; NADPH 100 µM, 70 µM compound): 0.00846
mode of inhibition (NADPH varied) (TGR): uncompetitive inhibition
mode of inhibition (NADPH varied) (TGR; listed as 3 (8VP83)): uncompetitive behavior

C[C@@H]1[C@H]2C[C@@H](C[C@H]1NCc1nc3ccccc3n1C1CCCCCC1)C2(C)C [Compound 8]
Vmax (TGR; 0.6 µM fast inhibitor): 0.05 ± 0.0017 ΔA412/min
Vmax (TGR; 10 µM fast inhibitor): 0.0091 ± 0.0007 ΔA412/min
Vmax (TGR; 30 µM fast inhibitor): 0.0067 ± 7E-5 ΔA412/min
Rate, single replicate (TGR; [7]): 0.02362 and 0.02203 and 0.02232
avg rate (TGR; [7]): 0.02266
Rate, single replicate (TGR; [8]): 0.03949 and 0.03661 and 0.03778
avg rate (TGR; [8]): 0.03796
Rate, single replicate (TGR; [9]): 0.04159 and 0.0438 and 0.04407
avg rate (TGR; [9]): 0.04315
Rate, single replicate (TGR; [10]): 0.04835 and 0.04882 and 0.0495
avg rate (TGR; [10]): 0.04889
Rate, single replicate (TGR; [11]): 0.007669 and 0.006838 and 0.009131
avg rate (TGR; [11]): 0.007879
Rate, single replicate (TGR; [12]): 0.005991 and 0.006991 and 0.01256
avg rate (TGR; [12]): 0.008514
Rate, single replicate (TGR; [13]): 0.006895 and 0.007479 and 0.009519
avg rate (TGR; [13]): 0.007964
Rate, single replicate (TGR; [14]): 0.01018 and 0.009394 and 0.01058
avg rate (TGR; [14]): 0.01005
Rate, single replicate (TGR; [15]): 0.00609 and 0.005955 and 0.006026
avg rate (TGR; [15]): 0.006024
Rate, single replicate (TGR; [16]): 0.006205 and 0.005206 and 0.007748
avg rate (TGR; [16]): 0.006386
Rate, single replicate (TGR; [17]): 0.006944 and 0.006279 and 0.006539
avg rate (TGR; [17]): 0.006587
Rate, single replicate (TGR; [18]): 0.005974 and 0.006732 and 0.007751
avg rate (TGR; [18]): 0.006819
mode of inhibition (NADPH varied) (TGR): uncompetitive inhibition
mode of inhibition (NADPH varied) (TGR; listed as 8 (9VP173)): uncompetitive behavior
Egg burden, Treated, individual mice [2, 19]: 2302 and 2373 and 2391 and 2292 and 2275
Worm burden, Treated, individual mice [2, 19]: 24 and 25 and 21 and 15
Egg burden, Treated, individual mice [2, 20]: 2221 and 2235 and 2223 and 2217 and 2241
Worm burden, Treated, individual mice [2, 20]: 24 and 29 and 27 and 28 and 23
decrease in egg burden [2, 5]: 2.1%
decrease in worm burden [2, 5]: 13.5%
decrease in egg burden [2, 21]: 7% and 6.8%
decrease in worm burden [2, 21]: 19% and 18.9%

CC1C(NCc2cn(C3OCC(O)C(O)C3O)c3ccccc23)CC2CC1C2(C)C (centres unmarked) [Compound 9]
Vmax (TGR; 10 µM fast inhibitor): 0.012 ± 0.00012 ΔA412/min
Vmax (TGR; 30 µM fast inhibitor): 0.0056 ± 0.00043 ΔA412/min
Vmax (TGR; 60 µM fast inhibitor): 0.0033 ± 0.00024 ΔA412/min
Rate, single replicate (TGR; [22]): 0.004595 and 0.004128 and 0.004463
avg rate (TGR; [22]): 0.004395
Rate, single replicate (TGR; [23]): 0.005356 and 0.005454 and 0.005186
avg rate (TGR; [23]): 0.005332
Rate, single replicate (TGR; [24]): 0.00852 and 0.006935
avg rate (TGR; [24]): 0.007727
Rate, single replicate (TGR; [25]): 0.008379 and 0.007686 and 0.007654
avg rate (TGR; [25]): 0.007906
Rate, single replicate (TGR; [26]): 0.002898 and 0.002979 and 0.003645
avg rate (TGR; [26]): 0.003174
Rate, single replicate (TGR; [27]): 0.003704 and 0.003359 and 0.003645
avg rate (TGR; [27]): 0.003569
Rate, single replicate (TGR; [28]): 0.005584
avg rate (TGR; [28]): 0.02094
Rate, single replicate (TGR; [29]): 0.004192 and 0.005 and 0.004489
avg rate (TGR; [29]): 0.00456
Rate, single replicate (TGR; inhibitor 10 µM, NADPH 5 (unit not given)): 0.00023 and 0.001097 and 0.0005855
Rate, single replicate (TGR; [11]): 0.001061 and 0.0007127 and 0.0008019
Rate, single replicate (TGR; [12]): 0.0004565 and 0.000593
Rate, single replicate (TGR; [13]): 0.0001918 and 0.000912 and 1.594e-5
mode of inhibition (NADPH varied) (TGR): noncompetitive inhibition
